{"source": "patent US11718624B2", "about": "“Solid state forms of substituted pyrazolopyrimidines and uses thereof” (KSQ Therapeutics, Inc., priority 2020, dated 2023)", "test": "Co-crystal screening experiments with Formula II (Table 17)", "assay_type": "physicochemical", "conditions": "XRPD", "protocol": "Additional co-crystal screens were carried out to identify further solid state forms of Formula (II).\nDifferential scanning calorimetry (DSC) was carried out with a TA Instruments Q2000 instrument (closed aluminum sample pan aluminum sample pan with a pinhole in the lid, heating rate 20 K/min). The melting point is understood as the peak maximum.\nLight microscopy was performed on a Leitz Orthoplan polarized microscope part #130880, generally a 10×10 magnification was applied.\nX-ray powder diffraction (XRPD) was carried out with a Stoe Stadi P diffractometer equipped with a Mythen1K detector operating with Cu-Kα1 radiation. The measurements with this instrument were performed in transmission at a tube voltage of 40 kV and 40 mA tube power. A curved Ge monochromator allows testing with Cu-Kα1 radiation. The following parameters were set: 0.02° 2θ step size, 12 s step time, 1.5-50.5° 2θ scanning range, and 1° 2θ detector step (detector mode in step scan). For a typical sample preparation about 10 mg of sample was placed between two acetate foils and mounted into a Stoe transmission sample holder. The sample was rotated during the measurement. All sample preparation and measurement was done in an ambient air atmosphere.\nTG-FTIR measurements were carried out with a Netzsch Thermo-Microblanace TG209 coupled to a Bruker FTIR Spectrometer Vector 22 (sample pans with a pinhole, N2 atmosphere, heating rate 10° C./min to 300 or 350° C.).\nThe starting material was a freebase form of Formula (II).", "data": [{"smiles": "COc1ncnc(C2CC2)c1-c1ncc2cnn(Cc3ccc(-c4nc(C(F)(F)F)cn4C(C)C)cc3)c2n1", "note": "[Compound of Formula (II), 6-(4-cyclopropyl-6-methoxypyrimidin-5-yl)-1-(4-(1-isopropyl-4-(trifluoromethyl)-1H-imidazol-2-yl)benzyl)-1H-pyrazolo[3,4-d]pyrimidine]", "values": [{"measurement": "Result (co-crystal screening)", "setting": "Experiment 1: material as received", "value": "Free base"}, {"measurement": "Result (co-crystal screening)", "setting": "Experiment 6: benzoic acid (1:1.1 eq), EtOAc 0.5 mL/heptane 3 mL, agitated 1 day", "value": "Free base"}, {"measurement": "Result (co-crystal screening)", "setting": "Experiment 16: gallic acid in acetone, evaporation, glassy residue treated with water/isopropanol", "value": "Free base"}, {"measurement": "Result (co-crystal screening)", "setting": "Experiment 17: 300 mg, 430 mg gallic acid, EtOH, evaporated three days", "value": "Gallic acid"}]}]}
